Measured values reported in patent US8722849B2, “Polypeptides” (Novo Nordisk A/S, priority 2011, dated 2014).
Starred links: 1 amine or outer side, 2 acyl side, 3 side chain; linkers in the order of their positions; H or OH if unused. Positions of bridges follow the written chain, without caps; N, C: chain ends. Residues, ends and D or L forms follow the SMILES beside them. Groups on a side chain read outwards from the residue. *: point of attachment. C20 diacid = O=C(O)CCCCCCCCCCCCCCCCCCC(=O)*; C18 diacid = O=C(O)CCCCCCCCCCCCCCCCC(=O)*; γGlu = O=C(O)[C@H](CCC(=O)[*:2])N[*:1]; AEEA = NCCOCCOCC(=O)O

Columns and labels:
[1] = Assay (III) ThT fibrillation assay for physical stability; type: physicochemical; conditions: ThT fibrillation assay
Excerpt: ASSAY (III)—ThT Fibrillation Assays for the Assessment of Physical Stability of Protein formulations Low physical stability of a polypeptide may lead to amyloid fibril formation, which is observed as well-ordered, thread-like macromolecular structures in the sample eventually resulting in gel formation. This has traditionally been measured by visual inspection of the sample. However, that kind of measurement is very subjective and depending on the observer. Therefore, the application of a small molecule indicator probe is much more advantageous. Thioflavin T (ThT) is such a probe and has a distinct fluorescence signature when binding to fibrils [Naiki et al. (1989) Anal. Biochem. 177, 244-249; LeVine (1999) Methods. Enzymol. […], 274-284]. The time course for fibril formation can be described by a sigmoidal curve with the following expression [Nielsen et al. (2001) Biochemistry 40, 6036-6046]: [formula] Here, F is the ThT fluorescence at the time t. The constant t0 is the time needed to reach 50% of maximum fluorescence. […] Few of those intermediates nucleate to form a template onto which further intermediates may assembly and the fibrillation proceeds. The lag-time corresponds to the interval in which the critical mass of nucleus is built up and the apparent rate constant is the rate with which the fibril itself is formed. Sample Preparation Samples were prepared freshly before each assay. Each sample composition is described in each example. The pH of the sample was adjusted to the desired value using appropriate amounts of concentrated NaOH and HClO4 or HCl. Thioflavin T was added to the samples from a stock solution in H2O to a final concentration of 1 μM. Sample aliquots of 200 μl were placed in a 96 well microtiter plate (Packard OptiPlate™-96, white polystyrene). Usually, four or eight replica of each sample (corresponding to one test condition) were placed in one column of wells. The plate was sealed with Scotch Pad (Qiagen). Incubation and Fluorescence Measurement Incubation at given temperature, shaking and measurement of the ThT fluorescence emission were done in a Fluoroskan Ascent FL fluorescence platereader or Varioskan platereader (Thermo Labsystems). The temperature was adjusted to 37° C. The orbital shaking was adjusted to 960 rpm with an amplitude of 1 mm in all the presented data. Fluorescence measurement was done using excitation through a 444 nm filter and measurement of emission through a 485 nm filter. Each run was initiated by incubating the plate at the assay temperature for 10 min. The plate was measured every 20 minutes for a desired period of time. Between each measurement, the plate was shaken and heated as described. Data Handling The measurement points were saved in Microsoft Excel format for further processing and curve drawing and fitting was performed using GraphPad Prism. The background emission from ThT in the absence of fibrils was negligible. The data points are typically a mean of four or eight samples and shown with standard deviation error bars. Only data obtained in the same experiment (i.e. samples on the same plate) are presented in the same graph ensuring a relative measure of fibrillation between experiments. The data set may be fitted to Eq. (1). However, since full sigmodial curves in this case are not always achieved during the measurement time, the degree of fibrillation is expressed as ThT fluorescence tabulated as the mean of the samples and shown with the standard deviation at various time points. Measurement of Initial and Final Concentrations The polypeptide concentration in each of the tested formulations were measured both before application in the ThT fibrillation assay (“Initial”) and after completion of the ThT fibrillation (“After ThT assay”). Concentrations were determined by reverse HPLC methods using a pramlintide standard as a reference. Before measurement after completion 150 μl was collected from each of the replica and transferred to an Eppendorf tube. […]

[2] = target: T1, human calcitonin receptor (Homo sapiens, UniProt P30988); test: Assay (II)a functional CRE-luciferase assay, human calcitonin receptor; type: cell-based; conditions: Table 7; human calcitonin (CTa) receptor
T1 construct: expressed in transfected cells; host or cells: BHK570
T1 sequence (P30988 25-474): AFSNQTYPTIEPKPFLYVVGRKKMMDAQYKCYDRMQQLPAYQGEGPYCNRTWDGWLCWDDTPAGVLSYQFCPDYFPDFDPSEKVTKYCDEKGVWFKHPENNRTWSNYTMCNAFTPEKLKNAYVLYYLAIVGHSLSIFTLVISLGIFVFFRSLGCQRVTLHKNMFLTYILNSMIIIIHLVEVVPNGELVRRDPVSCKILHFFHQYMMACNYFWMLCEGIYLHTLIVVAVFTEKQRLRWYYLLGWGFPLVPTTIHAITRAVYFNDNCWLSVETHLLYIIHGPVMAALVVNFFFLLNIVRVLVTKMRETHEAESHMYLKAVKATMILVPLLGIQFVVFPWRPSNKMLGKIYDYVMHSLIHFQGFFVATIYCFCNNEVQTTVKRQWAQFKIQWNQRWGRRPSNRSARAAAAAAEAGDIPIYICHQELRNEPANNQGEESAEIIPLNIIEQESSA
Excerpt: 1. Luciferase Assay Outline
Activation of calcitonin and amylin (coexpression of calcitonin receptor and receptor activity modifying proteins (RAMP)) receptors lead to increased intracellular concentrations of cAMP. Consequently, transcription is activated by promoters containing multiple copies of the cAMP response element (CRE). It is thus possible to measure amylin activity by the use of a CRE luciferase reporter gene introduced into BHK cells also expressing calcitonin or amylin receptors.
A BHK570 cell line was stably transfected with the human calcitonin receptor and a CRE-responsive luciferase reporter gene. The cell line was further transfected with RAMP-3, using standard methods. This turns the calcitonin receptor into an amylin 3(a) receptor. Methotrexate, Neomycin, and Hygromycin are selection markers for luciferase, the calcitonin receptor, and RAMP-3, respectively.
To perform activity assays, BHK calcitonin (a) receptor- or amylin 3(a)-receptor/CRE-luc cells were seeded in white 96 well culture plates at a density of about 20.000 cells/well. […] Further, 50 μl/well of standard or sample in assay buffer were added. After 3 hours incubation at 37° C. and 5% CO2, the assay medium with standard or sample were removed and replaced by 100 μl/well PBS. Further, 100 μl/well LucLite™ was added. The plates were sealed and incubated at room temperature for 30 minutes. Finally, luminescence was measured on a TopCounter (Packard) in SPC (single photon counting) mode.

SMILES	ThT pH 4.0 lag time (h) [1]	EC50 [2]
CC[C@H](C)[C@H](NC(=O)[C@H](CCCCNC(=O)COCCOCCNC(=O)COCCOCCNC(=O)CC[C@H](NC(=O)CCCCCCCCCCCCCCCCC(=O)O)C(=O)O)NC(=O)CNC(=O)[C@H](Cc1ccccc1)NC(=O)[C@H](CC(N)=O)NC(=O)[C@H](CC(N)=O)NC(=O)[C@H](CO)NC(=O)[C@H](CO)NC(=O)[C@H](Cc1c[nH]cn1)NC(=O)[C@@H](NC(=O)[C@H](CC(C)C)NC(=O)[C@H](Cc1ccccc1)NC(=O)[C@H](CCC(=O)O)NC(=O)[C@H](C)NC(=O)[C@H](CC(C)C)NC(=O)[C@H](CCCNC(=N)N)NC(=O)[C@H](CCC(N)=O)NC(=O)[C@@H](NC(=O)[C@H](C)NC(=O)[C@@H]1CSSC[C@H](NC(=O)[C@@H](N)CCCCN)C(=O)N[C@@H](CC(N)=O)C(=O)N[C@@H]([C@@H](C)O)C(=O)N[C@@H](C)C(=O)N[C@@H]([C@@H](C)O)C(=O)N1)[C@@H](C)O)C(C)C)C(=O)N[C@@H](CC(C)C)C(=O)N1CCC[C@H]1C(=O)N1CCC[C@H]1C(=O)N[C@H](C(=O)N[C@@H](CC(N)=O)C(=O)N[C@H](C(=O)NCC(=O)N[C@@H](CO)C(=O)N[C@@H](CC(N)=O)C(=O)N[C@H](C(=O)N[C@@H](Cc1ccc(O)cc1)C(N)=O)[C@@H](C)O)C(C)C)[C@@H](C)O [Example 126, N-epsilon25-[2-(2-{2-[2-(2-{2-[(S)-4-Carboxy-4-(17-carboxyheptadecanoylamino)butyrylamino]ethoxy}ethoxy)acetylamino]ethoxy}ethoxy)acetyl]-[Glu14,Lys25]-pramlintide] (H-KCNTATCATQRLAEFLVHSSNNFGK([AEEA-AEEA-γGlu-C18 diacid])ILPPTNVGSNTY-NH2; disulfide 2-7 (inferred))	10 h	–
CC(C)C[C@H](NC(=O)[C@H](CCCNC(=N)N)NC(=O)[C@H](CCC(N)=O)NC(=O)[C@@H](NC(=O)[C@H](C)NC(=O)[C@@H]1CSSC[C@H](NC(=O)[C@@H](N)CCCCNC(=O)CC[C@H](NC(=O)CCCCCCCCCCCCCCCCCCC(=O)O)C(=O)O)C(=O)N[C@@H](CC(N)=O)C(=O)N[C@@H]([C@@H](C)O)C(=O)N[C@@H](C)C(=O)N[C@@H]([C@@H](C)O)C(=O)N1)[C@@H](C)O)C(=O)N[C@@H](C)C(=O)N[C@@H](CCC(=O)O)C(=O)N[C@@H](Cc1ccccc1)C(=O)N[C@@H](CC(C)C)C(=O)N[C@@H](Cc1c[nH]cn1)C(=O)N[C@@H](Cc1c[nH]cn1)C(=O)N[C@@H](CO)C(=O)N[C@@H](CO)C(=O)N[C@@H](CCC(N)=O)C(=O)N[C@@H](CC(N)=O)C(=O)N[C@@H](Cc1ccccc1)C(=O)NCC(=O)N[C@@H](C)C(=O)N1CCC[C@H]1C(=O)N[C@@H](CC(C)C)C(=O)N[C@@H](CO)C(=O)N[C@@H](CO)C(=O)N[C@H](C(=O)N[C@@H](CC(N)=O)C(=O)N[C@H](C(=O)NCC(=O)N[C@@H](CO)C(=O)N[C@@H](CC(N)=O)C(=O)N[C@H](C(=O)N1CCC[C@H]1C(N)=O)[C@@H](C)O)C(C)C)[C@@H](C)O [Example 151, N-epsilon1-[(S)-4-Carboxy-4-(19-carboxynonadecanoylamino)butyryl]-[Glu14,His17,Gln21,Ala25,Pro26,Ser28,Ser29,Pro37]-pramlintide] (H-K([γGlu-C20 diacid])CNTATCATQRLAEFLHHSSQNFGAPLSSTNVGSNTP-NH2; disulfide 2-7 (inferred))	9 h	–
CC[C@H](C)[C@H](NC(=O)[C@@H]1CCCN1C(=O)CNC(=O)[C@H](Cc1ccccc1)NC(=O)[C@H](CC(N)=O)NC(=O)[C@H](CC(N)=O)NC(=O)[C@H](CO)NC(=O)[C@H](CO)NC(=O)[C@H](Cc1c[nH]cn1)NC(=O)[C@H](CCCNC(=N)N)NC(=O)[C@H](CC(C)C)NC(=O)[C@H](Cc1ccccc1)NC(=O)[C@H](CC(N)=O)NC(=O)[C@H](C)NC(=O)[C@H](CC(C)C)NC(=O)[C@H](CCCNC(=N)N)NC(=O)[C@H](CCC(N)=O)NC(=O)[C@@H](NC(=O)[C@H](C)NC(=O)[C@@H]1CSSC[C@H](NC(=O)[C@H](CCCCN)NC(=O)CC[C@H](NC(=O)CCCCCCCCCCCCCCCCCCC(=O)O)C(=O)O)C(=O)N[C@@H](CC(N)=O)C(=O)N[C@@H]([C@@H](C)O)C(=O)N[C@@H](C)C(=O)N[C@@H]([C@@H](C)O)C(=O)N1)[C@@H](C)O)C(=O)N[C@@H](CC(C)C)C(=O)N1CCC[C@H]1C(=O)N1CCC[C@H]1C(=O)N[C@H](C(=O)N[C@@H](CC(N)=O)C(=O)N[C@H](C(=O)NCC(=O)N[C@@H](CO)C(=O)N[C@@H](CC(N)=O)C(=O)N[C@H](C(=O)N1CCC[C@H]1C(N)=O)[C@@H](C)O)C(C)C)[C@@H](C)O [Example 154, N-alpha-[(S)-4-Carboxy-4-(19-carboxynonadecanoylamino)butyryl]-[Arg17,Pro37]-pramlintide] ({C20 diacid-γGlu}-KCNTATCATQRLANFLRHSSNNFGPILPPTNVGSNTP-NH2; disulfide 2-7 (inferred); C-terminus assumed)	–	0.057 nM
